Measurements taken from patent US8993544B2, “Carbamoylphosphonates as inhibitors and uses thereof” (priority 2009, dated 2015).

Biological target: T1, human MMP-9 (Homo sapiens, UniProt P14780)
T1 construct: purchased R&D Systems, Minneapolis
Assay: Determination of MMP inhibitory potency, MMP-9
Type: biochemical
Details: not given
Experimental: (§1) Recombinant enzymes, human MMP-1, MMP-2, MMP-3, MMP-8, MMP-9, MMP-12, MMP-13 and TACE (R&D Systems, Minneapolis) were incubated at four different concentrations with the relevant colorimetric or fluorescent peptide substrates (R&D Systems, Minneapolis) for 3 h. The tested compounds were added at four to six different concentrations and the inhibitory potencies expressed in a colorimetric change, was measured by an ELISA or fluorimeter.

T1 sequence (P14780 94-707): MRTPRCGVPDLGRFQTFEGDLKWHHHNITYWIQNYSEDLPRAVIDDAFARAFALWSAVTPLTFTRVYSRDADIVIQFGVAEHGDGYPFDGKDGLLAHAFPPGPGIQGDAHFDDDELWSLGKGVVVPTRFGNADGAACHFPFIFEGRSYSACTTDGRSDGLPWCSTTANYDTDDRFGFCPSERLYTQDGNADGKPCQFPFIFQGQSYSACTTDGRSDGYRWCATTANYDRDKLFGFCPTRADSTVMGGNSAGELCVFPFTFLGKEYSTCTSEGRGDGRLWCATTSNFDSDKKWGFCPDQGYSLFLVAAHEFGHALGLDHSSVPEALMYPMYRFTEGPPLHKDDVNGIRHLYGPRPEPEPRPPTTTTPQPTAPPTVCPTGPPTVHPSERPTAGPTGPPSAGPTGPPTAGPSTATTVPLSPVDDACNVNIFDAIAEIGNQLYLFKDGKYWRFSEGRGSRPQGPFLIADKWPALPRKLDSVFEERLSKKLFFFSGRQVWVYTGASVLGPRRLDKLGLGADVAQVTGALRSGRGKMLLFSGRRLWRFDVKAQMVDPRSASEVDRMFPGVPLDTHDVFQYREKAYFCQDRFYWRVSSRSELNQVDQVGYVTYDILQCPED

SMILES | IC50 [µM] | activity against MMP-9
N[C@H]1CCCC[C@H]1NC(=O)P(=O)(O)O (relative stereo) [YK-162, cis-2-aminocyclohexylcarbamoyl phosphonic acid, reference compound] | 20 | 
O=C(NCCNS(=O)(=O)c1ccc(Oc2ccccc2)cc1)P(=O)(O)O [Compound 1, 1-[4-phenoxybenzenesulfonamido]-2-[phosphonoformamido]ethane] |  | reduced or no activity

Same assay, conditions: read-out: IC50 (μM) on MMP-9

SMILES | IC50 [µM]
NC(CNC(=O)P(=O)(O)O)CNS(=O)(=O)c1ccc(Oc2ccccc2)cc1 (racemic) [Compound 8, 2-amino-1-(4-phenoxybenzenesulfonamido)-3-[phosphonoformamido]propane] | 12
O=C(NCCNS(=O)(=O)c1ccc(Oc2ccccc2)cc1)P(=O)(O)O [Compound 1, 1-[4-phenoxybenzenesulfonamido]-2-[phosphonoformamido]ethane] | > 100

Biological target: T2, human MMP-12 (Homo sapiens, UniProt P39900)
T2 construct: purchased R&D Systems, Minneapolis
Assay: Determination of MMP inhibitory potency, MMP-12
Type: biochemical
Details: not given
Experimental: as §1

T2 sequence (P39900 106-470): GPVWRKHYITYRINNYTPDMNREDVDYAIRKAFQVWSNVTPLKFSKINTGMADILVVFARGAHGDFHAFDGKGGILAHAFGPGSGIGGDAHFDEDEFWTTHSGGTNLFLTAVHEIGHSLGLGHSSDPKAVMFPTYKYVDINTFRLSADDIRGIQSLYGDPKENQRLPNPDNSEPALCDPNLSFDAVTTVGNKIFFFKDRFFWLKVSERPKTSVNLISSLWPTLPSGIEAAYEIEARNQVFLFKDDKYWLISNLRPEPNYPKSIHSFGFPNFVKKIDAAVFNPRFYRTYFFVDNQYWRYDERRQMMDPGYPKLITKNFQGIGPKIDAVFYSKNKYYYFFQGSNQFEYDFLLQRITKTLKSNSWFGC

SMILES | IC50 [µM]
N[C@H]1CCCC[C@H]1NC(=O)P(=O)(O)O (relative stereo) [YK-162, cis-2-aminocyclohexylcarbamoyl phosphonic acid, reference compound] | > 100

Same assay, conditions: read-out: IC50 (μM) on MMP-12

SMILES | IC50 [µM]
NC(CNC(=O)P(=O)(O)O)CNS(=O)(=O)c1ccc(Oc2ccccc2)cc1 (racemic) [Compound 8, 2-amino-1-(4-phenoxybenzenesulfonamido)-3-[phosphonoformamido]propane] | 15
O=C(NCCNS(=O)(=O)c1ccc(Oc2ccccc2)cc1)P(=O)(O)O [Compound 1, 1-[4-phenoxybenzenesulfonamido]-2-[phosphonoformamido]ethane] | 60

Test system: B16F10 tumor cells
Assay: Murine melanoma model of experimental metastasis
Type: in vivo, C57B1 mice
Details: B16F10 tumor cells in C57B1 mice
Experimental: Experimental metastasis was studied in the murine melanoma model. In this model, B16F10 tumor cells (50 k) were injected into the tail vein of C57B1 6 week old female mice. After 21 days, the metastases formed on the lungs of the mice were counted after appropriate fixation. […] One group received the inhibitor intraperitoneally and the other group orally, dissolved in PBS. Mice were monitored for toxic symptoms at alternate days.

SMILES | inhibition in metastasis formation (number of metastatic foci in the lung) [%]
O=C(NCCNS(=O)(=O)c1ccc(Oc2ccccc2)cc1)P(=O)(O)O [Compound 1, 1-[4-phenoxybenzenesulfonamido]-2-[phosphonoformamido]ethane] | > 80

Biological target: T3, human MMP-8 (Homo sapiens, UniProt P22894)
T3 construct: purchased R&D Systems, Minneapolis
Assay: Determination of MMP inhibitory potency, MMP-8
Type: biochemical
Details: not given
Experimental: as §1

T3 sequence (P22894 101-467): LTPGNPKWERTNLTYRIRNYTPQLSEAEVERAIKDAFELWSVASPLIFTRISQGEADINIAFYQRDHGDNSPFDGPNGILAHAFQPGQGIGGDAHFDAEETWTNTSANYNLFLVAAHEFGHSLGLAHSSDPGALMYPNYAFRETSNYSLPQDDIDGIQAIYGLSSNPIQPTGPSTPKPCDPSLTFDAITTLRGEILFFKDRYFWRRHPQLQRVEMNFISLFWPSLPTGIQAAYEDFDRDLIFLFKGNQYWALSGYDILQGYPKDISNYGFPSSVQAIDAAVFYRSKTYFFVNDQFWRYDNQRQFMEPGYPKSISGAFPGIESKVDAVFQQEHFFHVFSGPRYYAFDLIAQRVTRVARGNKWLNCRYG

SMILES | IC50 [µM] | activity against MMP-8
N[C@H]1CCCC[C@H]1NC(=O)P(=O)(O)O (relative stereo) [YK-162, cis-2-aminocyclohexylcarbamoyl phosphonic acid, reference compound] | > 100 | 
O=C(NCCNS(=O)(=O)c1ccc(Oc2ccccc2)cc1)P(=O)(O)O [Compound 1, 1-[4-phenoxybenzenesulfonamido]-2-[phosphonoformamido]ethane] |  | reduced or no activity

Same assay, conditions: read-out: IC50 (μM) on MMP-8

SMILES | IC50 [µM]
NC(CNC(=O)P(=O)(O)O)CNS(=O)(=O)c1ccc(Oc2ccccc2)cc1 (racemic) [Compound 8, 2-amino-1-(4-phenoxybenzenesulfonamido)-3-[phosphonoformamido]propane] | 12
O=C(NCCNS(=O)(=O)c1ccc(Oc2ccccc2)cc1)P(=O)(O)O [Compound 1, 1-[4-phenoxybenzenesulfonamido]-2-[phosphonoformamido]ethane] | > 100

Biological target: T4, MMP-2 (Homo sapiens, UniProt P08253)
T4 sequence (P08253 110-660): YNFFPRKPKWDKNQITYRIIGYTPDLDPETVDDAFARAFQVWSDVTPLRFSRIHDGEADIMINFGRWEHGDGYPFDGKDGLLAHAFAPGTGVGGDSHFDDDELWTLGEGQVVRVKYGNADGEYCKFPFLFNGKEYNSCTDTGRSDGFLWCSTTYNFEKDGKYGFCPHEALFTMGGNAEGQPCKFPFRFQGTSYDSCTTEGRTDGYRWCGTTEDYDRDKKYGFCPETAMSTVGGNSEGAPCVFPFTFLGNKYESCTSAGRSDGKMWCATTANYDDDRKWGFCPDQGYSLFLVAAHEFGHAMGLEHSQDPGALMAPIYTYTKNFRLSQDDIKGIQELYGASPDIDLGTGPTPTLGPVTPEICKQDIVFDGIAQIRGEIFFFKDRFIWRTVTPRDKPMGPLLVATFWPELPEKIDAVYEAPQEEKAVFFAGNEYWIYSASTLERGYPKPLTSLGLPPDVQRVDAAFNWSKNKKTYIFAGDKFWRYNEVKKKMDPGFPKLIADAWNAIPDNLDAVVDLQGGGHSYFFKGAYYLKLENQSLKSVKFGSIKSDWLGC
Assay: Determination of MMP inhibitory potency, MMP-2
Type: biochemical
Set-up: purchased R&D Systems, Minneapolis
Details: not given
Experimental: as §1

SMILES | IC50 [µM]
N[C@H]1CCCC[C@H]1NC(=O)P(=O)(O)O (relative stereo) [YK-162, cis-2-aminocyclohexylcarbamoyl phosphonic acid, reference compound] | 4

Same assay, conditions: read-out: IC50 (μM) on MMP-2

SMILES | IC50 [µM]
NC(CNC(=O)P(=O)(O)O)CNS(=O)(=O)c1ccc(Oc2ccccc2)cc1 (racemic) [Compound 8, 2-amino-1-(4-phenoxybenzenesulfonamido)-3-[phosphonoformamido]propane] | 15
O=C(NCCNS(=O)(=O)c1ccc(Oc2ccccc2)cc1)P(=O)(O)O [Compound 1, 1-[4-phenoxybenzenesulfonamido]-2-[phosphonoformamido]ethane] | 15

Test system: MMP and/or ADAM enzyme
Assay: Duration of inhibitory effect on the enzymes inhibited
Type: biochemical, human
Details: not given
Experimental: Previously, it has been established that cis-2-aminocyclohexycarbamoyl phosphonic acid (cis-ACCP), listed for the purpose of comparison in Tables 2 and 3 as “control”, was an effective nontoxic, in vivo active antimetastatic compound. […] In the study leading to the subject invention, it was determined that the inhibitory effect could be, and in fact was prolonged by substituting carbamoylphosphonic functionality with aromatic ring functionality as in the compounds of the invention. […]
as §1

SMILES | Duration of inhibitory effect [min] | duration of affinity to all the enzymes inhibited [h]
NC(CNC(=O)P(=O)(O)O)CNS(=O)(=O)c1ccc(Oc2ccccc2)cc1 (racemic) [Compound 8, 2-amino-1-(4-phenoxybenzenesulfonamido)-3-[phosphonoformamido]propane] | >180 | > 3
N[C@H]1CCCC[C@H]1NC(=O)P(=O)(O)O (relative stereo) [YK-162, cis-2-aminocyclohexylcarbamoyl phosphonic acid, reference compound] | <30 | 
O=C(NCCNS(=O)(=O)c1ccc(Oc2ccccc2)cc1)P(=O)(O)O [Compound 1, 1-[4-phenoxybenzenesulfonamido]-2-[phosphonoformamido]ethane] | >180 | 

Biological target: T5, human MMP-13 (Homo sapiens, UniProt P45452)
T5 construct: purchased R&D Systems, Minneapolis
Assay: Determination of MMP inhibitory potency, MMP-13
Type: biochemical
Details: not given
Experimental: as §1

SMILES | IC50 [µM]
N[C@H]1CCCC[C@H]1NC(=O)P(=O)(O)O (relative stereo) [YK-162, cis-2-aminocyclohexylcarbamoyl phosphonic acid, reference compound] | > 100

Same assay, conditions: read-out: IC50 (μM) on MMP-13

SMILES | IC50 [µM]
NC(CNC(=O)P(=O)(O)O)CNS(=O)(=O)c1ccc(Oc2ccccc2)cc1 (racemic) [Compound 8, 2-amino-1-(4-phenoxybenzenesulfonamido)-3-[phosphonoformamido]propane] | > 100
O=C(NCCNS(=O)(=O)c1ccc(Oc2ccccc2)cc1)P(=O)(O)O [Compound 1, 1-[4-phenoxybenzenesulfonamido]-2-[phosphonoformamido]ethane] | 55

Test system: tumor invasion
Assay: In vitro model of tumor invasion (Boyden chamber, reconstituted basement membrane)
Type: cell-based
Details: read-out: % Invasion-Inhibition by 50 μM drug
Experimental: The compound was also evaluated in an in vivo experimental model of metastasis using B16F10 tumor cells in C57B1 mice. […] The assay was carried out in a Boyden chamber with a reconstituted basement membrane (Matrigal).

SMILES | inhibition at 50 µM [%]
N[C@H]1CCCC[C@H]1NC(=O)P(=O)(O)O (relative stereo) [YK-162, cis-2-aminocyclohexylcarbamoyl phosphonic acid, reference compound] | 15
O=C(NCCNS(=O)(=O)c1ccc(Oc2ccccc2)cc1)P(=O)(O)O [Compound 1, 1-[4-phenoxybenzenesulfonamido]-2-[phosphonoformamido]ethane] | 70

Biological target: T4, MMP-2
Assay: Time dependent inhibition of MMP-2 (period of inhibition)
Type: biochemical
Details: not given

SMILES | period as active inhibitor (time dependent inhibition, FIG. 1)
O=C(NCCNS(=O)(=O)c1ccc(Oc2ccccc2)cc1)P(=O)(O)O [Compound 1, 1-[4-phenoxybenzenesulfonamido]-2-[phosphonoformamido]ethane] | at least 3 hours

Same assay, conditions: MMP-2

SMILES | period of MMP-2 inhibition
N[C@H]1CCCC[C@H]1NC(=O)P(=O)(O)O (relative stereo) [YK-162, cis-2-aminocyclohexylcarbamoyl phosphonic acid, reference compound] | about 30 minutes

Biological target: T6, human MMP-3 (Homo sapiens, UniProt P08254)
T6 construct: purchased R&D Systems, Minneapolis
Assay: Determination of MMP inhibitory potency, MMP-3
Type: biochemical
Details: not given
Experimental: as §1

T6 sequence (P08254 100-477): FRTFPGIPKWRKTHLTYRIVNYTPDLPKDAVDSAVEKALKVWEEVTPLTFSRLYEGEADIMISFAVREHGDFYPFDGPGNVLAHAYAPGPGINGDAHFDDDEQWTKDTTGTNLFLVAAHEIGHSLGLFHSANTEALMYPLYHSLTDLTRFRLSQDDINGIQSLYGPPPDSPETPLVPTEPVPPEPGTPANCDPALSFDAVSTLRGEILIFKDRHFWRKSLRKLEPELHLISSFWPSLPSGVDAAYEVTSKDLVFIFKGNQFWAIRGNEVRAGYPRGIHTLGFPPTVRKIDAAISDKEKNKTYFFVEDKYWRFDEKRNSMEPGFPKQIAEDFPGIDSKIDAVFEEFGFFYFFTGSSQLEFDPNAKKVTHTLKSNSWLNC

SMILES | IC50 [µM] | activity against MMP-3
N[C@H]1CCCC[C@H]1NC(=O)P(=O)(O)O (relative stereo) [YK-162, cis-2-aminocyclohexylcarbamoyl phosphonic acid, reference compound] | > 100 | 
O=C(NCCNS(=O)(=O)c1ccc(Oc2ccccc2)cc1)P(=O)(O)O [Compound 1, 1-[4-phenoxybenzenesulfonamido]-2-[phosphonoformamido]ethane] |  | reduced or no activity

Same assay, conditions: read-out: IC50 (μM) on MMP-3

SMILES | IC50 [µM]
NC(CNC(=O)P(=O)(O)O)CNS(=O)(=O)c1ccc(Oc2ccccc2)cc1 (racemic) [Compound 8, 2-amino-1-(4-phenoxybenzenesulfonamido)-3-[phosphonoformamido]propane] | > 100
O=C(NCCNS(=O)(=O)c1ccc(Oc2ccccc2)cc1)P(=O)(O)O [Compound 1, 1-[4-phenoxybenzenesulfonamido]-2-[phosphonoformamido]ethane] | > 100

Biological target: T7, TACE (Homo sapiens, UniProt P78536)
T7 construct: purchased R&D Systems, Minneapolis
Assay: Determination of inhibitory potency, TACE
Type: biochemical
Details: not given
Experimental: as §1

T7 sequence (P78536 215-824): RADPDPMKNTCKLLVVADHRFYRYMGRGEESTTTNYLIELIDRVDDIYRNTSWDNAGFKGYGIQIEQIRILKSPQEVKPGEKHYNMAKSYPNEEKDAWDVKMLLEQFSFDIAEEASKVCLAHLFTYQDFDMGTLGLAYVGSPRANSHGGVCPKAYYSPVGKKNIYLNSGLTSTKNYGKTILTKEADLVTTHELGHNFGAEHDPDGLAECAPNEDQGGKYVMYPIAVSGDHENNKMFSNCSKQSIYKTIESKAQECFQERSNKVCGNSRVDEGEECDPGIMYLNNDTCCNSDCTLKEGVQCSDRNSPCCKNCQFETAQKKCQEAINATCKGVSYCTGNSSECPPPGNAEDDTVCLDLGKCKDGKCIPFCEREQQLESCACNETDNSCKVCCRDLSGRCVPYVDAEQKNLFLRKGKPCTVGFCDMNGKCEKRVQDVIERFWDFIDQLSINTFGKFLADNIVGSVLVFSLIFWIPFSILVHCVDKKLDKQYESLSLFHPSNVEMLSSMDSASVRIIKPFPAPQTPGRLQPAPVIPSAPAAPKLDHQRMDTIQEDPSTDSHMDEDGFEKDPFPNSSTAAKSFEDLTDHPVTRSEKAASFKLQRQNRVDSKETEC

SMILES | IC50 [µM] | activity against TACE
N[C@H]1CCCC[C@H]1NC(=O)P(=O)(O)O (relative stereo) [YK-162, cis-2-aminocyclohexylcarbamoyl phosphonic acid, reference compound] | > 100 | 
O=C(NCCNS(=O)(=O)c1ccc(Oc2ccccc2)cc1)P(=O)(O)O [Compound 1, 1-[4-phenoxybenzenesulfonamido]-2-[phosphonoformamido]ethane] |  | moderate activity

Same assay, conditions: read-out: IC50 (μM) on TACE

SMILES | IC50 [µM]
NC(CNC(=O)P(=O)(O)O)CNS(=O)(=O)c1ccc(Oc2ccccc2)cc1 (racemic) [Compound 8, 2-amino-1-(4-phenoxybenzenesulfonamido)-3-[phosphonoformamido]propane] | 12
O=C(NCCNS(=O)(=O)c1ccc(Oc2ccccc2)cc1)P(=O)(O)O [Compound 1, 1-[4-phenoxybenzenesulfonamido]-2-[phosphonoformamido]ethane] | 6
